One block for each compound: values may come before it. The source made the active and inactive calls. The calls are words filed in the database; no cut-off is given here.
Experiments:
[1] = Drug level in Wistar rat brain at 10 mg/kg, po after 1 hr; type: ADME, organism-based; design: dose 10 mg/kg, route oral; conditions: read-out: Drug uptake
Histamine H3 receptor [2] = molecular target: T1, Histamine H3 receptor (Homo sapiens, UniProt Q9Y5N1); test: Displacement of [125I]-iodoproxyfan from human recombinant histamine H3 receptor expressed in human SK-N-MC cells after 1 hr by scintillation counting; type: cell-based
T1 sequence (Q9Y5N1 whole entry): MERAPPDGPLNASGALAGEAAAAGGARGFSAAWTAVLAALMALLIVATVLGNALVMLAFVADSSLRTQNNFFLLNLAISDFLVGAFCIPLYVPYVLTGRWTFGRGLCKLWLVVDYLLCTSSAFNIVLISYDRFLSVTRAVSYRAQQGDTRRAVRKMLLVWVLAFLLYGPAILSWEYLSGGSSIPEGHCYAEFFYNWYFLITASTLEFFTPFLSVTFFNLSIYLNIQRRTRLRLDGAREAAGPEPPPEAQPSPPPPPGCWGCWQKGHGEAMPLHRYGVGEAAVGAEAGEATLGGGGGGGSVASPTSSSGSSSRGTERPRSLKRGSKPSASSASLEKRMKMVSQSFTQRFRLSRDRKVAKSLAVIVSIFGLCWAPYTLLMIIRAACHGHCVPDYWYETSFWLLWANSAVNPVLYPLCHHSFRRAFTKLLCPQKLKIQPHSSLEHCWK

[3] = Plasma concentration in Wistar rat at 10 mg/kg, po after 1 hr; type: ADME, organism-based; design: dose 10 mg/kg, route oral; conditions: read-out: Drug uptake
[4] = Metabolic stability in human liver microsomes assessed as compound remaining after 30 mins; type: ADME, Microsome; conditions: read-out: Stability
[5] = Metabolic stability in rat liver microsomes assessed as compound remaining after 30 mins; type: ADME, Microsome; conditions: read-out: Stability
[6] = Plasma concentration in Wistar rat at 1 mg/kg, po after 60 mins; type: ADME, organism-based; design: dose 1 mg/kg, route oral; conditions: read-out: Drug uptake
Cytochrome P450 2C9 = Cytochrome P450 2C9 (Homo sapiens, UniProt P11712); test: Inhibition of CYP2C9 at 10 uM; type: ADME
Chain of Cytochrome P450 2C9 (P11712 whole entry): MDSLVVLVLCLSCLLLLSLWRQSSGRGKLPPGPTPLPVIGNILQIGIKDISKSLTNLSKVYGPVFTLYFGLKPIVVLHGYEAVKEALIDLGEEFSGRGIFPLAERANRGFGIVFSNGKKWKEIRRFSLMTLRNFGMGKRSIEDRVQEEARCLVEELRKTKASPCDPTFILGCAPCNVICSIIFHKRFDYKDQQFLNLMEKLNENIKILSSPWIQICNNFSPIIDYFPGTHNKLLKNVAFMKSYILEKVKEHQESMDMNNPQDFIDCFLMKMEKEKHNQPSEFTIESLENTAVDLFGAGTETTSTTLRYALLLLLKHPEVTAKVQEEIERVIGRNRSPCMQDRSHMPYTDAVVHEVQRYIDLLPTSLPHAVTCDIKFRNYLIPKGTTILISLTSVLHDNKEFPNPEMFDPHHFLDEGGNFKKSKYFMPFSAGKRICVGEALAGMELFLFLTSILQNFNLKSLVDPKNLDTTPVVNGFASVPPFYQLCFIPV

[7] = Volume of distribution at steady state in Beagle dog at 1 mg/kg, iv and 5 mg/kg, po; type: ADME, organism-based, Canis lupus familiaris; conditions: in vivo, read-out: Vdss
[8] = Bioavailability in Sprague-Dawley rat at 1 mg/kg, iv and 10 mg/kg, po; type: ADME, organism-based; conditions: in vivo
Rattus norvegicus [9] = test: Ex vivo receptor occupancy of histamine H3 receptor in Wistar rat brain at 1 mg/kg, po after 60 mins by [3H]R-alpha-methylhistamine bingind autoradiography; type: functional
[10] = Permeability from apical to basolateral side of human Caco-2 cells; type: ADME, cell-based; conditions: read-out: permeability
Rattus norvegicus [11] = test: Ex vivo receptor occupancy of histamine H3 receptor in Wistar rat brain at 10 mg/kg, po after 1 hr by autoradiography; type: functional
Histamine H3 receptor [12] = molecular target: T2, Histamine H3 receptor (Rattus norvegicus, UniProt Q9QYN8); test: Binding affinity to histamine H3 receptor in rat brain; type: tissue-based
T2 sequence (Q9QYN8 whole entry): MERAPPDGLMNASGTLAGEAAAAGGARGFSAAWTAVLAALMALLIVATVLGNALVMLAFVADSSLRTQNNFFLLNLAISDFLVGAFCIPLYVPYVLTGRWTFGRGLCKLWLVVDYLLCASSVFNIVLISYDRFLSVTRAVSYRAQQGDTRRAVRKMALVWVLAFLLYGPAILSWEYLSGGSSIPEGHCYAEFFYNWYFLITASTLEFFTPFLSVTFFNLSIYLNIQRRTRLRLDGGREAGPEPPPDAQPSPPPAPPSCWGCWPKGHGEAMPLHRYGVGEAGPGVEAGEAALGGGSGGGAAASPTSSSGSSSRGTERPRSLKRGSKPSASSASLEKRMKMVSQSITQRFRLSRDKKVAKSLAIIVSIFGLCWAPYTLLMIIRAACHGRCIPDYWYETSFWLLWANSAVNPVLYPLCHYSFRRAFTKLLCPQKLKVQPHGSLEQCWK

[13] = Permeability from basolateral to apical side of human Caco-2 cells; type: ADME, cell-based; conditions: read-out: permeability
[14] = Clearance in Sprague-Dawley rat at 1 mg/kg, iv and 10 mg/kg, po; type: ADME, organism-based; conditions: in vivo
[15] = Clearance in Beagle dog at 1 mg/kg, iv and 5 mg/kg, po; type: ADME, organism-based, Canis lupus familiaris; conditions: in vivo
[16] = Solubility in water; type: physicochemical
Cytochrome P450 2D6 = Cytochrome P450 2D6 (Homo sapiens, UniProt P10635); test: Inhibition of CYP2D6 at 10 uM; type: ADME
Chain of Cytochrome P450 2D6 (P10635 whole entry): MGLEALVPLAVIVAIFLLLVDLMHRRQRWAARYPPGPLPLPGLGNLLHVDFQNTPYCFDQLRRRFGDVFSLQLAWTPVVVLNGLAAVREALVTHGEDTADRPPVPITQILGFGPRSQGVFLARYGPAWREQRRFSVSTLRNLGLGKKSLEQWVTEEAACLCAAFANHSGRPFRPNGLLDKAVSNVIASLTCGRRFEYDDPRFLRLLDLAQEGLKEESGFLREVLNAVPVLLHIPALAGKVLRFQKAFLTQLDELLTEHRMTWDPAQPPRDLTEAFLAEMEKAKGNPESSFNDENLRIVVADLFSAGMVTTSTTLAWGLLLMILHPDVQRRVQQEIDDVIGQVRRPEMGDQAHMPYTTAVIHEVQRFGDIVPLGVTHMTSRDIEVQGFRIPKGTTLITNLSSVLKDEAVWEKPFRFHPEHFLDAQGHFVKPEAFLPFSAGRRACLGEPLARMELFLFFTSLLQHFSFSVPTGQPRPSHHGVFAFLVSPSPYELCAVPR

[17] = Clearance in BALB/c mouse at 1 mg/kg, iv and 10 mg/kg, po; type: ADME, organism-based; conditions: in vivo
Rattus norvegicus [18] = test: Increase of histamine release in rat frontal cortex at 3 to 30 mg/kg, po measured up to 180 mins; type: functional, organism-based
[19] = Bioavailability in BALB/c mouse at 1 mg/kg, iv and 10 mg/kg, po; type: ADME, organism-based; conditions: in vivo
[20] = Bioavailability in Beagle dog at 1 mg/kg, iv and 5 mg/kg, po; type: ADME, organism-based, Canis lupus familiaris; conditions: in vivo
Histamine H3 receptor [21] = molecular target: T2, Histamine H3 receptor; test: Antagonist activity at rat histamine H3 receptor expressed in human SK-N-MC cells assessed as inhibition of forskolin-induced cAMP accumulation after 6 hrs; type: functional, cell-based; conditions: read-out: pA2 (converted)
[22] = Half life in Sprague-Dawley rat at 1 mg/kg, iv and 10 mg/kg, po; type: ADME, organism-based; conditions: in vivo
[23] = Volume of distribution at steady state in BALB/c mouse at 1 mg/kg, iv and 10 mg/kg, po; type: ADME, organism-based; conditions: in vivo, read-out: Vdss
[24] = Half life in BALB/c mouse at 1 mg/kg, iv and 10 mg/kg, po; type: ADME, organism-based; conditions: in vivo
[25] = molecular target: T3, Voltage-gated inwardly rectifying potassium channel KCNH2 (Homo sapiens, UniProt Q12809); test: Inhibition of human ERG by patch clamp technique
T3 sequence (Q12809 whole entry): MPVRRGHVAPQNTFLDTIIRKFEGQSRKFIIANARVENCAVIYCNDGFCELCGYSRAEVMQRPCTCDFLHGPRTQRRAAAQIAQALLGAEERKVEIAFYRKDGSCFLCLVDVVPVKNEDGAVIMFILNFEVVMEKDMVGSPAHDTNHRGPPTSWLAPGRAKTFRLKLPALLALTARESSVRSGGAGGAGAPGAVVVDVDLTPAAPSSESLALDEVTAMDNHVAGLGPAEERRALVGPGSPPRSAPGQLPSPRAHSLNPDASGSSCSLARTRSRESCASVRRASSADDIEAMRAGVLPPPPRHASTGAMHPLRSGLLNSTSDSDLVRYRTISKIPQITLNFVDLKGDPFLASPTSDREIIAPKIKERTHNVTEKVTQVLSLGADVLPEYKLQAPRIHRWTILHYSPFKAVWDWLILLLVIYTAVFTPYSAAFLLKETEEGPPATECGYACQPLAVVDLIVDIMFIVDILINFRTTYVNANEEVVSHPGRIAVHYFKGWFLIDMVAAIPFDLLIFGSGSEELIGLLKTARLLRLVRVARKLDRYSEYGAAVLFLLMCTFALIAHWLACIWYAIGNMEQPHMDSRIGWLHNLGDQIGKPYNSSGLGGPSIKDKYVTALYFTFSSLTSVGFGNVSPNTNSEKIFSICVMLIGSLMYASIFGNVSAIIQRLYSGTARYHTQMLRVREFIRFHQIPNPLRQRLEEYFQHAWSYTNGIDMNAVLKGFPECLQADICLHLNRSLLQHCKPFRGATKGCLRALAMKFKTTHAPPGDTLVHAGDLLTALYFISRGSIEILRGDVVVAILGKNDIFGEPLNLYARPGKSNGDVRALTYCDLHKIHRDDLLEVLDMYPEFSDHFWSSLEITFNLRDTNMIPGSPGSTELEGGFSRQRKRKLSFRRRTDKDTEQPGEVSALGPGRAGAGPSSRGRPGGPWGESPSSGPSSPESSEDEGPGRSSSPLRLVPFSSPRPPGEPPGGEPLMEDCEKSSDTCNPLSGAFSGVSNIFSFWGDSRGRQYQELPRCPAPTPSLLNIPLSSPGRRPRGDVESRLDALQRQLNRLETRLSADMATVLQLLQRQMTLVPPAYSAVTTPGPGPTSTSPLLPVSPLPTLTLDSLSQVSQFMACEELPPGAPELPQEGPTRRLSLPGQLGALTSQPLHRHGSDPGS

[26] = Half life in Beagle dog at 1 mg/kg, iv and 5 mg/kg, po; type: ADME, organism-based, Canis lupus familiaris; conditions: in vivo
[27] = molecular target: T3, Voltage-gated inwardly rectifying potassium channel KCNH2; test: Displacement of radiolabeled astemizole from human ERG
[28] = Solubility in simulated gastric fluid; type: physicochemical
[29] = Volume of distribution at steady state in Sprague-Dawley rat at 1 mg/kg, iv and 10 mg/kg, po; type: ADME, organism-based; conditions: in vivo, read-out: Vdss
Histamine H3 receptor [30] = molecular target: T1, Histamine H3 receptor; test: Antagonist activity at human histamine H3 receptor expressed in human SK-N-MC cells assessed as inhibition of forskolin-induced cAMP accumulation after 6 hrs; type: functional, cell-based; conditions: read-out: pA2 (converted)
Cytochrome P450 3A4 = Cytochrome P450 3A4 (Homo sapiens, UniProt P08684); test: Inhibition of CYP3A4 at 10 uM; type: ADME
Chain of Cytochrome P450 3A4 (P08684 whole entry): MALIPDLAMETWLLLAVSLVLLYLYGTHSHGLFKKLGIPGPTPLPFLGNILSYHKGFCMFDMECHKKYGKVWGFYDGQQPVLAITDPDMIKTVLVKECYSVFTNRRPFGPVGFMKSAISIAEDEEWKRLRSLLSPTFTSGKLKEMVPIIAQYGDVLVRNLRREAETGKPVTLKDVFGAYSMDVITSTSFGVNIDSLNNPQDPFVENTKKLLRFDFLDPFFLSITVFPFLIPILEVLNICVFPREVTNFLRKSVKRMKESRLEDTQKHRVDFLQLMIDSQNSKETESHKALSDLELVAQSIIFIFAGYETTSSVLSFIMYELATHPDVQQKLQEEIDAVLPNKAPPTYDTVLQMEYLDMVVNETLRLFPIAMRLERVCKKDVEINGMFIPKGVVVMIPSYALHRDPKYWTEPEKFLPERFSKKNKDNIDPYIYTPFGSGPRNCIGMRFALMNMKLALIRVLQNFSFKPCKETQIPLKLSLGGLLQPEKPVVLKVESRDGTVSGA

Rattus norvegicus [31] = test: Increase of wake duration in rat at 30 mg/kg, s.c.
[32] = Fraction unbound in rat plasma; type: ADME, cell-free
hERG (KCNH2) = hERG (KCNH2) (Homo sapiens, UniProt Q12809); test: Displacement of radiolabeled astemizole from human ERG at 10 uM; conditions: probe radiolabeled astemizole
Chain of hERG (KCNH2) (Q12809 whole entry): as the sequence (Q12809 whole entry) above

SMILES: N#Cc1cccc(Oc2ccc(C(=O)N3CCCN(C4CCC4)CC3)cn2)c1
concentration at 1 h [6]: 160 ng/mL | Activity (Cytochrome P450 2C9): Not Active | concentration at 1 h [1]: 960 nM | Vd [7]: 1.6 L/kg | bioavailability [8]: 89% | Activity (Rattus norvegicus [9]): 90% | Papp A→B [10]: 77 ×10⁻⁶ cm/s | Ki (Histamine H3 receptor [2]): 0.0018 µM | Activity (Rattus norvegicus [11]): 87% | Ki (Histamine H3 receptor [12]): 0.011 µM | concentration at 1 h [3]: 6020 nM | Papp B→A [13]: 25 ×10⁻⁶ cm/s | clearance [14]: 41 mL/min/kg | clearance [15]: 21 mL/min/kg | solubility [16]: > 100 mg/mL | Activity (Cytochrome P450 2D6): Not Active | clearance [17]: 97 mL/min/kg | Activity (Rattus norvegicus [18]): Active | bioavailability [19]: 21% | bioavailability [20]: 29% | remaining at 0.5 h [4]: 99% | Kb (Histamine H3 receptor [21]): 0.00955 µM | half-life [22]: 42 min | Vd [23]: 4.4 L/kg | remaining at 0.5 h [5]: 87% | half-life [24]: 48 min | IC50 [25]: > 10 µM | half-life [26]: 54 min | IC50 [27]: > 10 µM | solubility [28]: > 1 mg/mL | Vd [29]: 1.4 L/kg | Kb (Histamine H3 receptor [30]): 0.000407 µM | Activity (Cytochrome P450 3A4): Not Active | Activity (Rattus norvegicus [31]): Active | fraction unbound [32]: 0.79 | inhibition at 10 µM (hERG (KCNH2)): 23%

SMILES: O=C(c1ccc(Oc2cccc(F)c2)nc1)N1CCCN(C2CCC2)CC1
concentration at 1 h [1]: 1960 nM | bioavailability [8]: 11% | Ki (Histamine H3 receptor [2]): 0.0041 µM | Activity (Rattus norvegicus [11]): 88% | concentration at 1 h [3]: 360 nM | clearance [14]: 118 mL/min/kg | remaining at 0.5 h [4]: 99% | half-life [22]: 48 min | remaining at 0.5 h [5]: 86% | IC50 [25]: 5.4 µM | IC50 [27]: > 10 µM | Vd [29]: 4.2 L/kg | inhibition at 10 µM (hERG (KCNH2)): 0%

SMILES: O=C(c1ccc(Oc2ccccc2)nc1)N1CCCN(C2CC2)CC1
Ki (Histamine H3 receptor [2]): 0.01 µM

SMILES: CC(C)N1CCN(C(=O)c2ccc(Oc3cccc(C#N)c3)nc2)CC1
Ki (Histamine H3 receptor [2]): 0.11 µM

SMILES: O=C(c1cncc(Oc2ccccc2)c1)N1CCCN(C2CCC2)CC1
Ki (Histamine H3 receptor [2]): 0.011 µM

SMILES: O=C(c1cccc(Oc2ccc(Cl)c(Cl)c2)n1)N1CCCN(C2CCC2)CC1
Ki (Histamine H3 receptor [2]): 0.16 µM

SMILES: O=C(c1ccc(Oc2ccc(F)cc2)cn1)N1CCCN(C2CCC2)CC1
concentration at 1 h [1]: 2370 nM | Vd [7]: 3.6 L/kg | bioavailability [8]: 23% | Ki (Histamine H3 receptor [2]): 0.0029 µM | Activity (Rattus norvegicus [11]): 87% | Ki (Histamine H3 receptor [12]): 0.024 µM | concentration at 1 h [3]: 1020 nM | clearance [14]: 80 mL/min/kg | clearance [15]: 35 mL/min/kg | bioavailability [20]: 14% | remaining at 0.5 h [4]: 95% | Kb (Histamine H3 receptor [21]): 0.0263 µM | half-life [22]: 60 min | remaining at 0.5 h [5]: 56% | half-life [26]: 114 min | Vd [29]: 4.5 L/kg | Kb (Histamine H3 receptor [30]): 0.00141 µM

SMILES: O=C(c1ccc(Oc2ccc(Cl)c(Cl)c2)cn1)N1CCCN(C2CC2)CC1
Ki (Histamine H3 receptor [2]): 0.01 µM

SMILES: CCN1CCCN(C(=O)c2ccc(Oc3ccc(F)cc3)nc2)CC1
Ki (Histamine H3 receptor [2]): 0.034 µM

SMILES: O=C(c1ccc(Oc2ccc(Cl)cc2)nc1)N1CCCN(C2CC2)CC1
Ki (Histamine H3 receptor [2]): 0.013 µM

SMILES: O=C(c1cncc(Oc2ccc(F)cc2)c1)N1CCCN(C2CCC2)CC1
Ki (Histamine H3 receptor [2]): 0.017 µM

SMILES: O=C(c1ccc(Oc2cccc(F)c2)cn1)N1CCCN(C2CCC2)CC1
Ki (Histamine H3 receptor [2]): 0.0055 µM

SMILES: CC(C)N1CCCN(C(=O)c2ccc(Oc3ccc(Cl)c(Cl)c3)cn2)CC1
Ki (Histamine H3 receptor [2]): 0.0015 µM | Kb (Histamine H3 receptor [30]): 0.000309 µM

SMILES: O=C(c1ccc(Oc2cccc(F)c2)nc1)N1CCCN(C2CC2)CC1
Ki (Histamine H3 receptor [2]): 0.016 µM

The remaining compounds from weak to strong by Ki (Histamine H3 receptor [2]), led by results:

Ki (Histamine H3 receptor [2]): 0.26 µM
SMILES: CC(C)N1CCN(C(=O)c2ccc(Oc3ccccc3)nc2)CC1

Ki (Histamine H3 receptor [2]): 0.04 µM
SMILES: O=C(c1ccc(Oc2ccccc2Cl)nc1)N1CCN(C2CCCC2)CC1

Ki (Histamine H3 receptor [2]): 0.029 µM
SMILES: O=C(c1ccc(Sc2ccc(F)cc2)nc1)N1CCCN(C2CCC2)CC1

Ki (Histamine H3 receptor [2]): 0.025 µM | Kb (Histamine H3 receptor [30]): 0.00158 µM
SMILES: O=C(c1ccc(Oc2ccc(F)cc2)nc1)N1CCCN(C2CC2)CC1

Ki (Histamine H3 receptor [2]): 0.018 µM
SMILES: CC(C)N1CCCN(C(=O)c2ccc(Oc3ccc(Cl)c(Cl)c3)nc2)CC1

concentration at 1 h [1]: 300 nM | Ki (Histamine H3 receptor [2]): 0.017 µM | Ki (Histamine H3 receptor [12]): 0.075 µM | concentration at 1 h [3]: 310 nM | remaining at 0.5 h [4]: 70% | Kb (Histamine H3 receptor [21]): 0.0115 µM | remaining at 0.5 h [5]: 41%
SMILES: O=C(c1ccc(Oc2cccc(Cl)c2)nc1)N1CCCN(C2CC2)CC1

concentration at 1 h [1]: 4790 nM | Ki (Histamine H3 receptor [2]): 0.0076 µM | concentration at 1 h [3]: 1520 nM | remaining at 0.5 h [4]: 30% | remaining at 0.5 h [5]: 4%
SMILES: O=C(c1ccc(Oc2ccc(Cl)c(Cl)c2)nc1)N1CCCN(C2CCC2)CC1
Activity (Rattus norvegicus [11]): 100%

Ki (Histamine H3 receptor [2]): 0.0057 µM
SMILES: O=C(c1cc(Oc2ccc(F)cc2)ccn1)N1CCCN(C2CCC2)CC1

concentration at 1 h [1]: 120 nM | Ki (Histamine H3 receptor [2]): 0.0046 µM | concentration at 1 h [3]: 30 nM | remaining at 0.5 h [4]: 82% | remaining at 0.5 h [5]: 7%
SMILES: O=C(c1ccc(Sc2ccc(F)cc2)cn1)N1CCCN(C2CCC2)CC1
